Tests used:
[1] = molecular target: T1, C3a anaphylatoxin chemotactic receptor (Homo sapiens, UniProt Q16581); assay: Inhibition of human C3a receptor expressed on HMC1 cells by SPA assay; assay type: cell-based
T1 sequence (Q16581 whole entry): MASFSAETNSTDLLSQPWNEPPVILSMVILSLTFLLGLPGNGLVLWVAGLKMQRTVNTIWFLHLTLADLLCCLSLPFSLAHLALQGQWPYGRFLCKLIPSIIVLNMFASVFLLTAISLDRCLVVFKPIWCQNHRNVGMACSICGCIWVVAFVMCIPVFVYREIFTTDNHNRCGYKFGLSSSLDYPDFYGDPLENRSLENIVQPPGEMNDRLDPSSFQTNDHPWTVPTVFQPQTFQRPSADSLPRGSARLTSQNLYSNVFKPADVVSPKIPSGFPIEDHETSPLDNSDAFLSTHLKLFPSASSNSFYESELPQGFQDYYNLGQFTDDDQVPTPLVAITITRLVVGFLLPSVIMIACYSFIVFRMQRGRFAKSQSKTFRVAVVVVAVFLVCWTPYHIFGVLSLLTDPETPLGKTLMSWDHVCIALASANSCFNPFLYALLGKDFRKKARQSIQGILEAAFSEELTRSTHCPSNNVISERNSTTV

[2] = Bioavailability in rats at 1 mg/kg, […]; assay type: ADME, organism-based; conditions: rat, in vivo
[3] = molecular target: CYP3A4 (Homo sapiens, UniProt P08684); assay: Inhibition of CYP3A4 at 50 uM; assay type: ADME
Chain of CYP3A4 (P08684 whole entry): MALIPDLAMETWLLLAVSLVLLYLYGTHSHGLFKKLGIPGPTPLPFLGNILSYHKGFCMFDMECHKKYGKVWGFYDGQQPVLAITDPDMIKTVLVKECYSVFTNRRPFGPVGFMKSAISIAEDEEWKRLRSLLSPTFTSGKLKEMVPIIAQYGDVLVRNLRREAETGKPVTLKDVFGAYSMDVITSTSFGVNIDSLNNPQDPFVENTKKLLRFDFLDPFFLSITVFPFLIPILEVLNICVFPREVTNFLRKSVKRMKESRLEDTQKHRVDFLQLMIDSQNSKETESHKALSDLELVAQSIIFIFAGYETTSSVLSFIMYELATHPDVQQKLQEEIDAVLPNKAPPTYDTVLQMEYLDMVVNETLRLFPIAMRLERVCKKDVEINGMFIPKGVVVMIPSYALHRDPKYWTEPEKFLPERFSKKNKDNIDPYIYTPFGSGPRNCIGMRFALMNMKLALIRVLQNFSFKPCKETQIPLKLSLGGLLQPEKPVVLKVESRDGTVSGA

[4] = Peak plasma concentration in ovalbumin-induced BALB/c mouse model of airway inflammation at 30 mg/kg, ip after 30 mins; assay type: ADME, organism-based; parameters: dose 30 mg/kg, route intraperitoneal
[5] = Metabolic clearance in rat liver microsomes; assay type: ADME, Microsome
[6] = Metabolic clearance in rat hepatocytes assessed per 10^6 cells; assay type: ADME, cell-based, Liver, Hepatocyte
[7] = molecular target: CYP2D6 (Homo sapiens, UniProt P10635); assay: Inhibition of CYP2D6 at 50 uM; assay type: ADME
Chain of CYP2D6 (P10635 whole entry): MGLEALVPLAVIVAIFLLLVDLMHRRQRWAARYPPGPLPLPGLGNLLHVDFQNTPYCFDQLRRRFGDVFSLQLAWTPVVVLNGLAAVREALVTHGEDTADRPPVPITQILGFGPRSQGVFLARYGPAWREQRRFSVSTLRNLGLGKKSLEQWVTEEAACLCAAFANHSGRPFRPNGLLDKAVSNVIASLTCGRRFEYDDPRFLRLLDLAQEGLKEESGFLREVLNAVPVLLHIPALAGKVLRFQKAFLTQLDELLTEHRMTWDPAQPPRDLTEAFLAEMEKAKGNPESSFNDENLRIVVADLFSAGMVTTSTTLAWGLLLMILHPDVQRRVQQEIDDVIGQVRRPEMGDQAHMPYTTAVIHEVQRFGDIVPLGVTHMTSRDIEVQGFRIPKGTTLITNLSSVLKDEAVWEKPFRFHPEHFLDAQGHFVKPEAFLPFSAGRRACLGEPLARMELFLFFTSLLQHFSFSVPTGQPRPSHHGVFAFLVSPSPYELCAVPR

[8] = Peak plasma concentration in ovalbumin-induced BALB/c mouse model of airway inflammation at 3 mg/ml aerosol after 30 mins; assay type: ADME, organism-based; conditions: inhaled or intranasal
[9] = Bioavailability in rats at 1 mg/kg, po; assay type: ADME, organism-based; conditions: rat, in vivo
[10] = Permeability from apical to basolateral side in Caco-2 cells; assay type: ADME, cell-based; conditions: human, read-out: permeability
[11] = molecular target: T1, C3a anaphylatoxin chemotactic receptor; assay: Antagonist activity at C3aR; assay type: functional
[12] = molecular target: T1, C3a anaphylatoxin chemotactic receptor; assay: Agonist activity at C3a receptor expressed on HMC1 cells; assay type: functional, cell-based

SMILES | IC50 [1] | further results
NC(N)=NCCC[C@@H](NC(=O)c1ccc(-c2cccc3c2oc2ccccc23)o1)C(=O)O | 3980 nM | 
N=C(N)NCCC[C@@H](NC(=O)c1ccc(-c2csc3ccccc23)o1)C(=O)O | 316 nM | 
N=C(N)NCCC[C@H](NC(=O)c1ccc(C(c2ccccc2)c2ccccc2)o1)C(=O)O |  | bioavailability [2]: < 1%; inhibition at 50 µM [3]: 0%; Cmax [4]: 33800 ng/mL; microsomal CLint [5]: 4 µL/min/mg; hepatocyte CLint [6]: 5 µL/min/1e6 cells; inhibition at 50 µM [7]: 12%; Cmax [8]: 27 ng/mL; bioavailability [9]: < 1%; Papp A→B [10]: 0.4 ×10⁻⁶ cm/s
COc1cccc(-c2ccc(C(=O)N[C@H](CCCN=C(N)N)C(=O)O)o2)c1 | 316 nM | 
N=C(N)NCCC[C@@H](NC(=O)c1ccc(C(c2cccc(F)c2)c2cccc(F)c2)o1)C(=O)O | 31.6 nM | EC50 [11]: 1260 nM
N#Cc1cccc(-c2ccc(C(=O)N[C@H](CCCNC(=N)N)C(=O)O)o2)c1 | 200 nM | 
NC(N)=NCCC[C@@H](NC(=O)N1CCN(C(c2ccccc2)c2ccccc2)CC1)C(=O)O | 50100 nM | 
NC(N)=NCCC[C@@H](NC(=O)c1ccc(-c2ccc(F)c(Cl)c2)o1)C(=O)O | 200 nM | 
N=C(N)NCCC[C@@H](NC(=O)c1ccc(C(c2ccccc2)c2ccccc2)cc1)C(=O)O | 794 nM | 
Cc1cccc(-c2ccc(C(=O)N[C@H](CCCNC(=N)N)C(=O)O)o2)c1 | 126 nM | 
N=C(N)NCCC[C@@H](NC(=O)c1ccc(-c2cccc(CO)c2)o1)C(=O)O | 794 nM | 
N=C(N)NCCC[C@H](NC(=O)COCC(c1ccccc1)c1ccccc1)C(=O)O | 501 nM | 
N=C(N)NCCC[C@@H](NC(=O)c1ccc(-c2cccc(Cl)c2)o1)C(=O)O | 79.4 nM | EC50 [12]: 501 nM
N=C(N)NCCC[C@@H](NC(=O)c1ccc(-c2cc(Cl)ccc2Cl)o1)C(=O)O | 1580 nM | 
N=C(N)NCCC[C@@H](NC(=O)c1ccc(C(c2cccc(Cl)c2)c2cccc(Cl)c2)o1)C(=O)O | 15.8 nM | EC50 [12]: 20 nM
N=C(N)NCCC[C@@H](NC(=O)c1ccc(-c2cccc(F)c2)o1)C(=O)O | 316 nM | 
N=C(N)NCCC[C@@H](NC(=O)c1ccc(-c2cccc(Cl)c2)s1)C(=O)O | 6310 nM | EC50 [11]: 15800 nM
NC(N)=NCCC[C@@H](NC(=O)c1ccc(C(c2ccc(Cl)cc2)c2ccc(Cl)cc2)o1)C(=O)O | 158 nM | EC50 [12]: 126 nM
CCOc1cccc(-c2ccc(C(=O)N[C@H](CCCN=C(N)N)C(=O)O)o2)c1 | 200 nM | 
N=C(N)NCCC[C@@H](NC(=O)c1ccc(-c2cccc(Cl)c2)cc1)C(=O)O | 100000 nM | 
Cc1ccc(Cl)cc1-c1ccc(C(=O)N[C@H](CCCN=C(N)N)C(=O)O)o1 | 794 nM | 
NC(N)=NCCC[C@@H](NC(=O)c1cccc(-c2cccc(Cl)c2)c1)C(=O)O | 794 nM | EC50 [11]: 3980 nM
